Tests used:
Experiment in all cases: Bacterial panel testing, MIC by broth microdilution
Format in all cases: cell-based
Conditions in all cases: 20-24 hours growth
Enterococcus faecium = tested on: Enterococcus faecium
Description: (§1) One to three colonies of bacteria were picked from an Mueller-Hinton or Brain Heart infusion agar plate (depending on the bacterial strain) and transferred to 3 ml Mueller-Hinton broth or Brain Heart infusion media (depending on the bacterial strain). Bacteria were allowed to grow for 2-4 hours in an incubator at 37° C. Bacteria-inoculated media were dispersed in 0.9% saline to match McFarland standard density. 100 μl standardized inoculation was added to 20 ml media (dilution 1). 10 μl of the new dilution was added to 990 μl media and mixed (dilution 2). 10 μl of dilution 2 was spread on an agar plate and allowed to grow overnight. Colonies were then […].
(§2) Test compound was diluted to 10 μg/ml in dimethylsulfoxide. Four μl of Rifampicin antibiotic was loaded into row H, column 2.
(§3) All wells were then filled with 100 μl of inoculated media (dilution 1 from Example 1). A further 100 μl of the inoculated media was then added to column 2 and the contents are pipetted to thoroughly mix the contents. A full 100 μl was then transferred from column 2 and mixed into column 3. This process was continued from left to right until columns 2-12 were serially diluted, and the final draw from column 12 was discarded. The plates were covered with 3M sealing tape (plates containing Enterococcus faecium were sealed with Air Pore sealing tape) and allowed to grow for 20-24 hours. Cytotoxic wells (clear wells) are then scored and the potency of the compound was determined.

Pseudomonas aeruginosa = tested on: Pseudomonas aeruginosa
Description: as §1, §2, §3

Eschericia coli = tested on: Eschericia coli
Description: as §1, §2, §3

Salmonella choleraesuis = tested on: Salmonella choleraesuis
Description: as §1, §2, §3

SMILES | MIC EF (Enterococcus faecium) | MIC PA (Pseudomonas aeruginosa) | MIC EC (Eschericia coli) | MIC SC (Salmonella choleraesuis)
CC(C)(C)[Si](C)(C)OC1CNC(C(=O)NCC2OC3OC4C(CNC(=O)C5CC(O[Si](C)(C)C(C)(C)C)CN5)OC(OC5C(CNC(=O)C6CC(O[Si](C)(C)C(C)(C)C)CN6)OC(OC6C(CNC(=O)C7CC(O[Si](C)(C)C(C)(C)C)CN7)OC(OC7C(CNC(=O)C8CC(O[Si](C)(C)C(C)(C)C)CN8)OC(OC8C(CNC(=O)C9CC(O[Si](C)(C)C(C)(C)C)CN9)OC(OC9C(CNC(=O)C%10CC(O[Si](C)(C)C(C)(C)C)CN%10)OC(OC2C(O)C3O)C(O)C9O)C(O)C8O)C(O)C7O)C(O)C6O)C(O)C5O)C(O)C4O)C1.O=C(O)C(F)(F)F.O=C(O)C(F)(F)F.O=C(O)C(F)(F)F.O=C(O)C(F)(F)F.O=C(O)C(F)(F)F.O=C(O)C(F)(F)F.O=C(O)C(F)(F)F (stereo not drawn) | >200 µg/mL | >200 µg/mL | – | –
CCCCCCCCCCNC[C@H]1O[C@@H]2O[C@H]3[C@H](O)[C@@H](O)[C@@H](O[C@H]4[C@H](O)[C@@H](O)[C@@H](O[C@H]5[C@H](O)[C@@H](O)[C@@H](O[C@H]6[C@H](O)[C@@H](O)[C@@H](O[C@H]7[C@H](O)[C@@H](O)[C@@H](O[C@H]8[C@H](O)[C@@H](O)[C@@H](O[C@H]1[C@H](O)[C@H]2O)O[C@@H]8CNCCCCCCCCCC)O[C@@H]7CNCCCCCCCCCC)O[C@@H]6CNCCCCCCCCCC)O[C@@H]5CNCCCCCCCCCC)O[C@@H]4CNCCCCCCCCCC)O[C@@H]3CNCCCCCCCCCC | – | >200 µg/mL | >200 µg/mL | >200 µg/mL
Oc1cccnc1NCC1OC2OC3C(CNc4ncccc4O)OC(OC4C(CNc5ncccc5O)OC(OC5C(CNc6ncccc6O)OC(OC6C(CNc7ncccc7O)OC(OC7C(CNc8ncccc8O)OC(OC8C(CNc9ncccc9O)OC(OC1C(O)C2O)C(O)C8O)C(O)C7O)C(O)C6O)C(O)C5O)C(O)C4O)C(O)C3O (stereo not drawn) | – | >200 µg/mL | >200 µg/mL | >200 µg/mL
CCCCCCCCCCCC[N+]12CC[N+](CC3OC4OC5C(C[N+]67CC[N+](CCCCCCCCCCCC)(CC6)CC7)OC(OC6C(C[N+]78CC[N+](CCCCCCCCCCCC)(CC7)CC8)OC(OC7C(C[N+]89CC[N+](CCCCCCCCCCCC)(CC8)CC9)OC(OC8C(C[N+]9%10CC[N+](CCCCCCCCCCCC)(CC9)CC%10)OC(OC9C(C[N+]%10%11CC[N+](CCCCCCCCCCCC)(CC%10)CC%11)OC(OC%10C(C[N+]%11%12CC[N+](CCCCCCCCCCCC)(CC%11)CC%12)OC(OC3C(O)C4O)C(O)C%10O)C(O)C9O)C(O)C8O)C(O)C7O)C(O)C6O)C(O)C5O)(CC1)CC2.[Br-].[Br-].[Br-].[Br-].[Br-].[Br-].[Br-].[Br-].[Br-].[Br-].[Br-].[Br-].[Br-].[Br-] (stereo not drawn) | – | >200 µg/mL | >200 µg/mL | >200 µg/mL
CCCCCCCCCCCCCCCC[N+]12CC[N+](CC3OC4OC5C(C[N+]67CC[N+](CCCCCCCCCCCCCCCC)(CC6)CC7)OC(OC6C(C[N+]78CC[N+](CCCCCCCCCCCCCCCC)(CC7)CC8)OC(OC7C(C[N+]89CC[N+](CCCCCCCCCCCCCCCC)(CC8)CC9)OC(OC8C(C[N+]9%10CC[N+](CCCCCCCCCCCCCCCC)(CC9)CC%10)OC(OC9C(C[N+]%10%11CC[N+](CCCCCCCCCCCCCCCC)(CC%10)CC%11)OC(OC%10C(C[N+]%11%12CC[N+](CCCCCCCCCCCCCCCC)(CC%11)CC%12)OC(OC3C(O)C4O)C(O)C%10O)C(O)C9O)C(O)C8O)C(O)C7O)C(O)C6O)C(O)C5O)(CC1)CC2.[Br-].[Br-].[Br-].[Br-].[Br-].[Br-].[Br-].[Br-].[Br-].[Br-].[Br-].[Br-].[Br-].[Br-] (stereo not drawn) | – | >200 µg/mL | – | –
OC1C2OC(CNc3cccc4ccccc34)C(OC3OC(CNc4cccc5ccccc45)C(OC4OC(CNc5cccc6ccccc56)C(OC5OC(CNc6cccc7ccccc67)C(OC6OC(CNc7cccc8ccccc78)C(OC7OC(CNc8cccc9ccccc89)C(OC8OC(CNc9cccc%10ccccc9%10)C(O2)C(O)C8O)C(O)C7O)C(O)C6O)C(O)C5O)C(O)C4O)C(O)C3O)C1O (stereo not drawn) | – | >200 µg/mL | >200 µg/mL | >200 µg/mL
OC1C2OC(CNc3ccccc3-c3ccccc3)C(OC3OC(CNc4ccccc4-c4ccccc4)C(OC4OC(CNc5ccccc5-c5ccccc5)C(OC5OC(CNc6ccccc6-c6ccccc6)C(OC6OC(CNc7ccccc7-c7ccccc7)C(OC7OC(CNc8ccccc8-c8ccccc8)C(OC8OC(CNc9ccccc9-c9ccccc9)C(O2)C(O)C8O)C(O)C7O)C(O)C6O)C(O)C5O)C(O)C4O)C(O)C3O)C1O (stereo not drawn) | – | >200 µg/mL | >200 µg/mL | >200 µg/mL
CCCCCCCCCC[N+]12CC[N+](CC(=O)NCC3OC4OC5C(CNC(=O)C[N+]67CC[N+](CCCCCCCCCC)(CC6)CC7)OC(OC6C(CNC(=O)C[N+]78CC[N+](CCCCCCCCCC)(CC7)CC8)OC(OC7C(CNC(=O)C[N+]89CC[N+](CCCCCCCCCC)(CC8)CC9)OC(OC8C(CNC(=O)C[N+]9%10CC[N+](CCCCCCCCCC)(CC9)CC%10)OC(OC9C(CNC(=O)C[N+]%10%11CC[N+](CCCCCCCCCC)(CC%10)CC%11)OC(OC%10C(CNC(=O)C[N+]%11%12CC[N+](CCCCCCCCCC)(CC%11)CC%12)OC(OC3C(O)C4O)C(O)C%10O)C(O)C9O)C(O)C8O)C(O)C7O)C(O)C6O)C(O)C5O)(CC1)CC2 (stereo not drawn) | >200 µg/mL | – | – | –
OC1C2OC(CNCc3cccc4ccccc34)C(OC3OC(CNCc4cccc5ccccc45)C(OC4OC(CNCc5cccc6ccccc56)C(OC5OC(CNCc6cccc7ccccc67)C(OC6OC(CNCc7cccc8ccccc78)C(OC7OC(CNCc8cccc9ccccc89)C(OC8OC(CNCc9cccc%10ccccc9%10)C(O2)C(O)C8O)C(O)C7O)C(O)C6O)C(O)C5O)C(O)C4O)C(O)C3O)C1O (stereo not drawn) | – | >200 µg/mL | >200 µg/mL | >200 µg/mL
C[C@H](NCC1OC2OC3C(CN[C@@H](C)c4ccccc4)OC(OC4C(CN[C@@H](C)c5ccccc5)OC(OC5C(CN[C@@H](C)c6ccccc6)OC(OC6C(CN[C@@H](C)c7ccccc7)OC(OC7C(CN[C@@H](C)c8ccccc8)OC(OC8C(CN[C@@H](C)c9ccccc9)OC(OC1C(O)C2O)C(O)C8O)C(O)C7O)C(O)C6O)C(O)C5O)C(O)C4O)C(O)C3O)c1ccccc1 (stereo partly drawn) | – | >200 µg/mL | – | >200 µg/mL
Cc1cccc(NCC2OC3OC4C(CNc5cccc(C)c5)OC(OC5C(CNc6cccc(C)c6)OC(OC6C(CNc7cccc(C)c7)OC(OC7C(CNc8cccc(C)c8)OC(OC8C(CNc9cccc(C)c9)OC(OC9C(CNc%10cccc(C)c%10)OC(OC2C(O)C3O)C(O)C9O)C(O)C8O)C(O)C7O)C(O)C6O)C(O)C5O)C(O)C4O)c1 (stereo not drawn) | – | >200 µg/mL | >200 µg/mL | >200 µg/mL
Cc1ccccc1NCC1OC2OC3C(CNc4ccccc4C)OC(OC4C(CNc5ccccc5C)OC(OC5C(CNc6ccccc6C)OC(OC6C(CNc7ccccc7C)OC(OC7C(CNc8ccccc8C)OC(OC8C(CNc9ccccc9C)OC(OC1C(O)C2O)C(O)C8O)C(O)C7O)C(O)C6O)C(O)C5O)C(O)C4O)C(O)C3O (stereo not drawn) | – | >200 µg/mL | >200 µg/mL | >200 µg/mL
COc1cccc(CCNCC2OC3OC4C(CNCCc5cccc(OC)c5)OC(OC5C(CNCCc6cccc(OC)c6)OC(OC6C(CNCCc7cccc(OC)c7)OC(OC7C(CNCCc8cccc(OC)c8)OC(OC8C(CNCCc9cccc(OC)c9)OC(OC9C(CNCCc%10cccc(OC)c%10)OC(OC2C(O)C3O)C(O)C9O)C(O)C8O)C(O)C7O)C(O)C6O)C(O)C5O)C(O)C4O)c1 (stereo not drawn) | – | >200 µg/mL | – | –
CC(C)CCCCC(C)NCC1OC2OC3C(CNC(C)CCCCC(C)C)OC(OC4C(CNC(C)CCCCC(C)C)OC(OC5C(CNC(C)CCCCC(C)C)OC(OC6C(CNC(C)CCCCC(C)C)OC(OC7C(CNC(C)CCCCC(C)C)OC(OC8C(CNC(C)CCCCC(C)C)OC(OC1C(O)C2O)C(O)C8O)C(O)C7O)C(O)C6O)C(O)C5O)C(O)C4O)C(O)C3O (stereo not drawn) | – | >200 µg/mL | – | –
OC1C2OC(CNCCC3=CCCCC3)C(OC3OC(CNCCC4=CCCCC4)C(OC4OC(CNCCC5=CCCCC5)C(OC5OC(CNCCC6=CCCCC6)C(OC6OC(CNCCC7=CCCCC7)C(OC7OC(CNCCC8=CCCCC8)C(OC8OC(CNCCC9=CCCCC9)C(O2)C(O)C8O)C(O)C7O)C(O)C6O)C(O)C5O)C(O)C4O)C(O)C3O)C1O (stereo not drawn) | – | >200 µg/mL | – | –
OC1C2OC(CNCc3ccc(Cl)cc3)C(OC3OC(CNCc4ccc(Cl)cc4)C(OC4OC(CNCc5ccc(Cl)cc5)C(OC5OC(CNCc6ccc(Cl)cc6)C(OC6OC(CNCc7ccc(Cl)cc7)C(OC7OC(CNCc8ccc(Cl)cc8)C(OC8OC(CNCc9ccc(Cl)cc9)C(O2)C(O)C8O)C(O)C7O)C(O)C6O)C(O)C5O)C(O)C4O)C(O)C3O)C1O (stereo not drawn) | – | >200 µg/mL | – | >200 µg/mL
Cc1cc(NCC2OC3OC4C(CNc5ccc(C(C)C)c(C)c5)OC(OC5C(CNc6ccc(C(C)C)c(C)c6)OC(OC6C(CNc7ccc(C(C)C)c(C)c7)OC(OC7C(CNc8ccc(C(C)C)c(C)c8)OC(OC8C(CNc9ccc(C(C)C)c(C)c9)OC(OC9C(CNc%10ccc(C(C)C)c(C)c%10)OC(OC2C(O)C3O)C(O)C9O)C(O)C8O)C(O)C7O)C(O)C6O)C(O)C5O)C(O)C4O)ccc1C(C)C (stereo not drawn) | – | >200 µg/mL | >200 µg/mL | >200 µg/mL
OC1C2OC(CNCc3ccc(Br)cc3)C(OC3OC(CNCc4ccc(Br)cc4)C(OC4OC(CNCc5ccc(Br)cc5)C(OC5OC(CNCc6ccc(Br)cc6)C(OC6OC(CNCc7ccc(Br)cc7)C(OC7OC(CNCc8ccc(Br)cc8)C(OC8OC(CNCc9ccc(Br)cc9)C(O2)C(O)C8O)C(O)C7O)C(O)C6O)C(O)C5O)C(O)C4O)C(O)C3O)C1O (stereo not drawn) | – | – | >200 µg/mL | –
